# Experimental data: US20240050409A1, “Methods and Compositions for Treating Psychotic Disorders” (SOUND PHARMACEUTICALS INCORPORATED, priority 2014, published 2024)
# Entries after “also recorded” stand apart in the source; their conditions may differ.
# Legend:
# [1] = test system: NVHL rats; test: Mismatch negativity (MMN), auditory evoked potentials, NVHL rats; type: in vivo, Sprague-Dawley rats; conditions: juvenile treatment
# Description: Abnormal excitation-inhibition balance in adult NVHL rats can yield altered information processing that would be prevented by NAC treatment if it depended on oxidative stress. Mismatch negativity (MMN) was tested using auditory evoked potentials in an oddball paradigm in SHAM (n=6), NVHL (n=3), and NAC-treated NVHL rats (n=3). MMN has high translational relevance, as it is attenuated in schizophrenia patients (Javitt et al., 1993) and in animal models (Ehrlichman et al., 2009). Electroencephalographic (EEG) electrodes were implanted in NVHL, NAC-treated NVHL, and SHAM rats. This observation is consistent with the effect of NAC on MMN in patients (Lavoie et al., 2008), and indicates the NVHL model reproduces an important disease marker that can be prevented by juvenile antioxidant treatment. As MMN depends on NMDA receptor function (Umbricht et al., 2000) and NMDA hypofunction in PVI is suspected in schizophrenia, it is possible that MMN improvement with NAC results from restored PVI activity. […]
# Mismatch Negativity: NVHL, NAC-treated NVHL, and sham female rats were implanted with chronic EEG electrodes under isoflurane anesthesia. […] A difference wave was constructed by subtracting the standard wave from the deviant wave, and MMN was quantified by measuring the area under the curve in the period between 35 and 100 ms after the stimulus. […]
# [2] = test system: NVHL rats; test: Prepulse inhibition of the acoustic startle response (PPI) in NVHL rats; type: in vivo, Sprague-Dawley rats; conditions: adult NVHL rats
# Description: To assess whether juvenile oxidative stress leads to behavioral deficits, a behavioral paradigm was used for testing in both animal models and schizophrenia patients. Prepulse inhibition of the acoustic startle response (PPI) is a measure of sensorimotor gating that is reduced in patients (Geyer and Braff, 1987) and NVHL rats (Lipska et al., 1995). PPI was tested in adult sham (n=11), NAC-treated sham (n=12), NVHL (n=9), and NAC-treated NVHL rats (n=17). In addition to loss of PVI maturation and electrophysiological anomalies, developmental oxidative stress in juvenile NVHL rats can cause schizophrenia-relevant adult behavioral deficits.
# The beneficial effect of NAC treatment includes a large postnatal treatment that starts prior to the lesion and stops once rats become young adults. For full translational value one determines whether NAC is efficacious when started at an age that corresponds to the time when prodromal stages can be identified in humans. In another set of rats, NAC was administered in the drinking water starting at P35, an age that in rats is equivalent to early adolescence. For PPI deficits was tested in adult SHAM (n=15), untreated NVHL (n=12), and NAC-treated NVHL rats (n=14).
# Ebselen is a glutathione peroxidase (GPx) mimic (Muller et al., 1984) that induces GPx expression (Kil et al., 2007) and enhances GSH levels in neurons, replenishing GSH depleted by neurotoxic mechanisms (Pawlas and Malecki, 2007). PPI was tested in adult vehicle-treated SHAM (n=10), Ebselen-treated SHAM (n=7), vehicle-treated NVHL (n=8), and Ebselen-treated NVHL rats (n=9), and Ebselen treatment during adolescence reversed PPI deficits in NVHL rats (as shown in FIG. 15D).
# In another group of rats, the effects of the NADPH oxidase inhibitor Apocynin was assessed while delivering through juvenile and adolescent stages. PPI was tested in adult vehicle-treated SHAM (n=10), apocynin-treated SHAM (n=11), vehicle treated NHVL (n=7), and apocynin-treated NVHL (n=5). As illustrated in FIG. 15C a reversal of PPI deficits was observed.
# Antioxidant pretreatment regimen: NAC (BioAdvantexPharma, Mississauga, Ontario, Canada) was administered in the drinking water at 900 mg/l. NAC treatment started at P5 or at P35, and previous work in mice has shown that NAC consumed by the dam is transmitted to the pups through her milk (das Neves Duarte et al., 2012). NAC treatment ended at P50. Fresh solutions were prepared every 2-3 days. Ebselen (Sound Pharmaceuticals Inc., Seattle, WA) was administered i.p. 5 days a week starting at P35 until the day of PPI testing (P60). Stock ebselen solution (20 mg/ml DMSO, frozen aliquots) was diluted 1:5 in sterile water and administered at a dose of 10 mg/kg. Control animals received an equivalent concentration of DMSO diluted 1:5 in water. Apocynin (Sigma-Aldrich, St. Louis, MO) was administered in the drinking water at a target dose of 100 mg/kg (Nwokocha et al., 2013). Prior to weaning at P21, drinking water contained a dose of 2 g apocynin per 0.5 1 of water, to ensure delivery through the dam's milk. Apocynin concentration was lowered after weaning to 750 mg/1 to best approximate the target dose. Treatment lasted from P5 to P50 with fresh solutions prepared every other day.
# Prepulse inhibition: Starting at P60, both male and female rats were tested for PPI, as described previously (Feleder et al., 2010). As PPI deficits in NVHL rats are most evident when rats are challenged with apomorphine (Lipska et al., 1995), we injected apomorphine (0.1 mg/kg, i.p.) immediately prior to the PPI test session. Rats were placed in a sound- attenuated startle chamber (San Diego Instruments, San Diego, CA) with a 70 dB background white noise. After a 5 min adaptation period, the PPI test was initiated with pseudorandom trials every 15 to 25 seconds. Either pulse (120 dB), prepulse (75 dB, 80 dB, or 85 dB), no pulse or prepulse +pulse were delivered. […]
smiles,measurement,setting,value
"CC(=O)N[C@@H](CS)C(=O)O [NAC, N-acetyl cysteine]",effect on MMN deficit,[1],improving
same,effect on PPI deficit,"[2]; apomorphine 0.1 mg/kg i.p. challenge, juvenile treatment P5 to P50, drinking water",prevented; also recorded: completely reversed
same,effect on PPI deficit,"[2]; adolescent treatment P35 to P50, drinking water, tested P61",prevented
